From ChEMBL document CHEMBL1201862, “PubChem BioAssay data set” (2004)
Calls of active or inactive are those of the source.

What was measured:
[1] = biological target: T1, Hexokinase (Trypanosoma brucei, UniProt Q38C41); assay: Confirmation assay for inhibitors of Trypanosoma brucei hexokinase 1-Analogue-first series. [Related pubchem assays (depositor defined):AID1430, AID1632, AID2516, AID2560, AID2579, AID2600, AID449725, AID492951]; type: functional
T1 sequence (Q38C41 whole entry): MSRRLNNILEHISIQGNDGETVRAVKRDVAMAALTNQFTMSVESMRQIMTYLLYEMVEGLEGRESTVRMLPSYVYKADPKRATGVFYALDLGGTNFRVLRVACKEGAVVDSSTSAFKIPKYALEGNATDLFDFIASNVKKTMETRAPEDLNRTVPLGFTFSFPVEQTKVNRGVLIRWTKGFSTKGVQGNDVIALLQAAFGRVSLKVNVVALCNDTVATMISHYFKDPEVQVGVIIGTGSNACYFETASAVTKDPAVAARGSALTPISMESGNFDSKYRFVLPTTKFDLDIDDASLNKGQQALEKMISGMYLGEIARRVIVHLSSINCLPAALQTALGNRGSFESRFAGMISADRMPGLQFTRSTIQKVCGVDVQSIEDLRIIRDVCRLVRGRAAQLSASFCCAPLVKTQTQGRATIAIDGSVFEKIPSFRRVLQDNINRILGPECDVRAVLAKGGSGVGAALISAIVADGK

[2] = biological target: T2, Sphingosine 1-phosphate receptor 4 (Homo sapiens, UniProt O95977); assay: Late-stage fluorescence dose response cell-based assay to identify agonists of the Sphingosine 1-Phosphate Receptor 4 (S1P4): purchased compounds EC50. [Related pubchem assays (depositor defined):AID1509, AID1523, AID1563, AID1686, AID1701, AID1801]; type: functional
T2 sequence (O95977 whole entry): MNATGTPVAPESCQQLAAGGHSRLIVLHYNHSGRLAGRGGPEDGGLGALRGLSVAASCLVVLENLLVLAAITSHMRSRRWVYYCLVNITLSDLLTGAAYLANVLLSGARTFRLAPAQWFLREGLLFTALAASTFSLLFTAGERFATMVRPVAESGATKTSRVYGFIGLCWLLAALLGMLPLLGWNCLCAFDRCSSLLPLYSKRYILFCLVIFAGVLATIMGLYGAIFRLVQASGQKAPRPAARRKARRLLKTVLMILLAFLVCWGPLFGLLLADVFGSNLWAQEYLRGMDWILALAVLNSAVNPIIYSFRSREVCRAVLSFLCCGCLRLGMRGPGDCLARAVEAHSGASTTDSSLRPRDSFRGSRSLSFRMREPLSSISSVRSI

[3] = biological target: T3, RNA-binding protein pos-1 (Caenorhabditis elegans, UniProt G5EF15); assay: inhibitors of POS-1/mex-3 RNA binding, dose response, biochemical, fluorescence polarization (AID 1964);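 note: purified POS-1 fused to maltose binding protein made in E. coli; potency of compounds blocking POS-1 binding to fluorescent RNA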
T3 sequence (G5EF15 whole entry): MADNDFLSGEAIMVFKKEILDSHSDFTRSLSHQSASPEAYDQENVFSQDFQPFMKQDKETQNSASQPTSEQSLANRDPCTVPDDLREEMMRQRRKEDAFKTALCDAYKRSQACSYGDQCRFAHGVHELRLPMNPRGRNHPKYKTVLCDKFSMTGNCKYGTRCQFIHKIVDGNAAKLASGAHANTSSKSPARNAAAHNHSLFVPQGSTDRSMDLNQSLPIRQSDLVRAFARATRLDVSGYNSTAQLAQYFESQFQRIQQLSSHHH

[4] = biological target: Peroxisome proliferator-activated receptor gamma/Nuclear receptor coactivator 1 (Homo sapiens, UniProt P37231); assay: TR-FRET dose response biochemical High Throughput Screening assay for agonists of the steroid receptor coactivator 1 (SRC-1) recruitment by the peroxisome proliferator-activated receptor gamma (PPAR gamma): non-selective agonists. [Related pubchem assays (depositor defined):AID1300, AID1808, AID504735, AID631]; type: protein assay
[5] = biological target: Peroxisome proliferator-activated receptor gamma/Nuclear receptor coactivator 2 (Homo sapiens, UniProt P37231); assay: TR-FRET dose response biochemical High Throughput Screening assay for agonists of the steroid receptor coactivator 2 (SRC-2) recruitment by the peroxisome proliferator-activated receptor gamma (PPAR gamma): non-selective agonists. [Related pubchem assays: 1297, 1032 ]; type: functional
[6] = biological target: T4, Zinc finger protein mex-5 (Caenorhabditis elegans, UniProt Q9XUB2); assay: MEX-5/TCR-2 RNA interaction inhibitors, dose response, biochemical, C. elegans, fluorescence polarization (AID 1960)
T4 sequence (Q9XUB2 whole entry): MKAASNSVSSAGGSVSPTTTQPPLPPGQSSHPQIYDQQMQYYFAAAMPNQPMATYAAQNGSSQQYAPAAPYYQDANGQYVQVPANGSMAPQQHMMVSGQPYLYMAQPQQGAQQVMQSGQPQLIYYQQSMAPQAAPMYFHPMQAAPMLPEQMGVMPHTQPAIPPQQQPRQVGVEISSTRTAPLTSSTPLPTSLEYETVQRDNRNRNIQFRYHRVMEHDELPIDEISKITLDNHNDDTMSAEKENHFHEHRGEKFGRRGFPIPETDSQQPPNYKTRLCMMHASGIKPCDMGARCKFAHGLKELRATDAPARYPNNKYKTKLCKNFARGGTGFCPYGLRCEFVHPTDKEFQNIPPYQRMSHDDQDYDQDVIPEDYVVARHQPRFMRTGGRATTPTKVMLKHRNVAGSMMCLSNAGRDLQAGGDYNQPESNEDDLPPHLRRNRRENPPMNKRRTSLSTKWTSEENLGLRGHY

[7] = biological target: Peroxisome proliferator-activated receptor gamma/Nuclear receptor coactivator 3 (Homo sapiens, UniProt P37231); assay: TR-FRET dose response biochemical High Throughput Screening assay for agonists of the steroid receptor coactivator 3 (SRC-3) recruitment by the peroxisome proliferator-activated receptor gamma (PPAR gamma): non-selective agonists. [Related pubchem assays: 1301 (Confirmation screen.), 1048 (Primary screen.)]; type: functional
[8] = Luminescence Cell-Based Dose Response HTS to Identify Activators of Luciferase Translation or Activity in H4 […] Cells. [Related pubchem assays: 1829 (Project Summary), 1814 (Primary HTS)]; type: functional
[9] = biological target: Intestinal-type alkaline phosphatase (Homo sapiens, UniProt P09923); assay: human intestinal alkaline phosphatase activators, dose response, biochemical, luminescence, uHTS hits (AID 463120); type: functional
[10] = test system: H4; assay: Luminescence Cell-Based Dose Response HTS to Identify Activators of 5'UTR Stem-Loop Driven Prion Protein mRNA Translation in H4 Neuroglioblastoma Cells. [Related pubchem assays: 1829 (Project Summary), 1814 (Primary HTS)]; type: functional; conditions: Homo sapiens
[11] = Luminescence Cell-Based Dose Confirmation HTS to Identify Activators of 5'UTR Stem-Loop Driven Alpha-Synuclein mRNA Translation in H4 Neuroglioblastoma Cells. [Related pubchem assays: 1829 (Project Summary), 1814 (Primary HTS)]; type: functional
[12] = biological target: T5, Alkaline phosphatase, tissue-nonspecific isozyme (Homo sapiens, UniProt P05186); assay: human TNAP enzyme inhibitors, SAR follow-up, biochemical, luminescent, dose response (AID 1056)
T5 sequence (P05186 whole entry): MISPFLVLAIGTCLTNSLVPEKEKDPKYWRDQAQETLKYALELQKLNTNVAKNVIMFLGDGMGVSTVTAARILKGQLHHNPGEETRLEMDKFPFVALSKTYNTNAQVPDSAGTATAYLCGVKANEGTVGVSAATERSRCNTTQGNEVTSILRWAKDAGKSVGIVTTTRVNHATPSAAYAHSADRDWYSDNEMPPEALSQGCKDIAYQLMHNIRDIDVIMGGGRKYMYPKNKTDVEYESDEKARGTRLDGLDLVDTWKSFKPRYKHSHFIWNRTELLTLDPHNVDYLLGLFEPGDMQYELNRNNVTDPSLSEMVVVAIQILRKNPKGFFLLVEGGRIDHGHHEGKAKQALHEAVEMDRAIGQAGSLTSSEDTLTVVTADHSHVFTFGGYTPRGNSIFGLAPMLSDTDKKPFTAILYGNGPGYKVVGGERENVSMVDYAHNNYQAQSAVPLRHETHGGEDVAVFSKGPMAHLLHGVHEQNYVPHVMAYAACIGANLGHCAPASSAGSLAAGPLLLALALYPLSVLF

[13] = biological target: Glyceraldehyde-3-phosphate dehydrogenase (Homo sapiens, UniProt P04406)
[14] = biological target: Alkaline phosphatase, placental type (Homo sapiens, UniProt P05187); assay: PLAP enzyme inhibitors, confirmation, biochemical, luminescence (AID 1512); type: functional
[15] = biological target: T6, Ubiquitin-conjugating enzyme E2 N (Homo sapiens, UniProt P61088); type: functional
T6 sequence (P61088 whole entry): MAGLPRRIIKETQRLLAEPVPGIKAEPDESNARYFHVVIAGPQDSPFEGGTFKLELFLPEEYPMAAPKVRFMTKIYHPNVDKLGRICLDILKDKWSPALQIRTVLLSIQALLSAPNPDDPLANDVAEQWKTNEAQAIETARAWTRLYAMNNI

[16] = biological target: T7, Bcl-2-related protein A1 (Mus musculus, UniProt Q07440); type: functional;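 note: confirmatory dose–response counterscreen on Bfl-1, used to check hits from a UBC13 polyubiquitin inhibitor campaign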
T7 sequence (Q07440 whole entry): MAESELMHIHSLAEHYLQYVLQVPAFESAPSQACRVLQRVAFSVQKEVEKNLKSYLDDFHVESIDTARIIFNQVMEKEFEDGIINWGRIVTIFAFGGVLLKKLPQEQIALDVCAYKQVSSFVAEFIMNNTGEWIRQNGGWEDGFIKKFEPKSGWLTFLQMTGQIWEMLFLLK

[17] = biological target: T6, Ubiquitin-conjugating enzyme E2 N; type: functional; remark: listed apart in the source
[18] = microbe, parasite or virus in culture; type: functional; conditions: Mycobacterium tuberculosis
[19] = cells; type: functional
[20] = Vero E6 cell cytotoxicity, dose response, cytotoxicity control for non-replicating M. tuberculosis project, secondary assay (AID 492998); type: functional, VeroE6; conditions: Vero C1008
[21] = THP-1 cell cytotoxicity, dose response, cytotoxicity control for non-replicating M. tuberculosis project (AID 489025); type: functional
[22] = biological target: T8, Polyadenylate-binding protein 1 (Homo sapiens, UniProt P11940); assay: PABP1 MLLE–PAM2 interaction inhibitors, dose response, miRNA deadenylation inhibitor project, biochemical, fluorescence polarization, Cy5-PAM2 peptide, secondary (AID 602260); type: functional; conditions: read-out: IC50_Mean
[23] = biological target: E3 ubiquitin-protein ligase XIAP (Homo sapiens, UniProt P98170); assay: Counter Screen using XIAP-Bir3 for Chemical Antagonists of Bir1/2 domains of IAP-family anti-apoptotic proteins. [Related pubchem assays (depositor defined):AID1018, AID1449, AID1514, AID1638, AID1749, AID1750, AID488957, AID488963]
[24] = biological target: T8, Polyadenylate-binding protein 1; assay: PABP1 MLLE–PAM2 binding inhibitor potency, dose response, biochemical, fluorescence polarization, FITC-PAM2 peptide (AID 602259); type: functional; conditions: read-out: IC50_Mean

Chain of Alkaline phosphatase, placental type (P05187 whole entry): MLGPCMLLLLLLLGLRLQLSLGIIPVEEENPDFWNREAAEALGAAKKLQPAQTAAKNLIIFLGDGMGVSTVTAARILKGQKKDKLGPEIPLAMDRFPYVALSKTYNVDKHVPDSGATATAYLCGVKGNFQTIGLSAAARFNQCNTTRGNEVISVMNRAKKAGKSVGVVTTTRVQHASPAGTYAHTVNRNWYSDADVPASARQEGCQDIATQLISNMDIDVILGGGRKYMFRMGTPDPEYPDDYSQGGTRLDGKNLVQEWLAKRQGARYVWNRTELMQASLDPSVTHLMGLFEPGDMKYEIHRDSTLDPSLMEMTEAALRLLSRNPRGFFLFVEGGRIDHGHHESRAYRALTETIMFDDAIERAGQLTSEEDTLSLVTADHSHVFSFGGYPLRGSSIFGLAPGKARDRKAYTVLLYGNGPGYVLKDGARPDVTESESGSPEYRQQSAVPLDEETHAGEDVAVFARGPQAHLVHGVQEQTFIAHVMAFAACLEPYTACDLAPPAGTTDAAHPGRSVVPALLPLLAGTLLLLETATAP
Chain of Glyceraldehyde-3-phosphate dehydrogenase (P04406 whole entry): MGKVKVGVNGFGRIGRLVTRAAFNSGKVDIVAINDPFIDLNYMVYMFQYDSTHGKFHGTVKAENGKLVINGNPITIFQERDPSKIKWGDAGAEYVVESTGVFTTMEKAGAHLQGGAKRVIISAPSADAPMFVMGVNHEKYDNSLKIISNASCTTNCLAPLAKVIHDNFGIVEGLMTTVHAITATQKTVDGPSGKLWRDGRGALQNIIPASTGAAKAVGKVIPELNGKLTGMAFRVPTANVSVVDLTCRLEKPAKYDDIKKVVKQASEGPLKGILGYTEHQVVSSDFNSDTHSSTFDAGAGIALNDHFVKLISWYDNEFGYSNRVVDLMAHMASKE
T8 sequence (P11940 whole entry): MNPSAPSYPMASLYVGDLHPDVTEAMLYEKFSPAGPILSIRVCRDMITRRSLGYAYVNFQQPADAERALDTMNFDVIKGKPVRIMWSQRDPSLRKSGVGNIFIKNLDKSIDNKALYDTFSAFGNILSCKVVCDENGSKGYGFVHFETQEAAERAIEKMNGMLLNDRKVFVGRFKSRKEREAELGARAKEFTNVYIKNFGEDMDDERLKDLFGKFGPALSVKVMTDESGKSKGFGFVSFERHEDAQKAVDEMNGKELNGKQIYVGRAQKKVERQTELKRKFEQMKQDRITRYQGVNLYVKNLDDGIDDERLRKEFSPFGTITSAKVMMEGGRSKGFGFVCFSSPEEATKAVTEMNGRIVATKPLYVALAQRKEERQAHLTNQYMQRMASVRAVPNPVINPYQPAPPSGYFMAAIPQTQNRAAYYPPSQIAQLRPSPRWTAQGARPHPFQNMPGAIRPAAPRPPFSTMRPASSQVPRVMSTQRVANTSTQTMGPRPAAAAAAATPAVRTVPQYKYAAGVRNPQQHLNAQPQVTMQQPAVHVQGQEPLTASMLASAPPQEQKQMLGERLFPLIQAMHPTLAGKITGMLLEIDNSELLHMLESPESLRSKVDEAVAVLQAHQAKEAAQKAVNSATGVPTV
Chain of E3 ubiquitin-protein ligase XIAP (P98170 whole entry): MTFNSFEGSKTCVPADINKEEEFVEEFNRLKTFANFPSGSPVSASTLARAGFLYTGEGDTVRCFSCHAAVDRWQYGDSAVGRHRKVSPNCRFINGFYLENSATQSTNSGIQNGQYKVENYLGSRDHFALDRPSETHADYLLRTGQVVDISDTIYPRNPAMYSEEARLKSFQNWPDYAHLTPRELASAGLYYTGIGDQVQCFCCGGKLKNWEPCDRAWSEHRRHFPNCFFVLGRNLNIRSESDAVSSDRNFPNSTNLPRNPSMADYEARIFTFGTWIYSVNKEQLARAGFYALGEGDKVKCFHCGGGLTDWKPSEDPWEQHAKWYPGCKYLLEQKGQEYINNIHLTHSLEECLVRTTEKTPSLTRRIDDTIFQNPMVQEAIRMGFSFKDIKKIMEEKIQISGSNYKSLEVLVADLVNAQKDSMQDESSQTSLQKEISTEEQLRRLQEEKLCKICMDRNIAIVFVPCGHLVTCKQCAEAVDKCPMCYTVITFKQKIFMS
Chain of Peroxisome proliferator-activated receptor gamma/Nuclear receptor coactivator 2 (P37231 whole entry): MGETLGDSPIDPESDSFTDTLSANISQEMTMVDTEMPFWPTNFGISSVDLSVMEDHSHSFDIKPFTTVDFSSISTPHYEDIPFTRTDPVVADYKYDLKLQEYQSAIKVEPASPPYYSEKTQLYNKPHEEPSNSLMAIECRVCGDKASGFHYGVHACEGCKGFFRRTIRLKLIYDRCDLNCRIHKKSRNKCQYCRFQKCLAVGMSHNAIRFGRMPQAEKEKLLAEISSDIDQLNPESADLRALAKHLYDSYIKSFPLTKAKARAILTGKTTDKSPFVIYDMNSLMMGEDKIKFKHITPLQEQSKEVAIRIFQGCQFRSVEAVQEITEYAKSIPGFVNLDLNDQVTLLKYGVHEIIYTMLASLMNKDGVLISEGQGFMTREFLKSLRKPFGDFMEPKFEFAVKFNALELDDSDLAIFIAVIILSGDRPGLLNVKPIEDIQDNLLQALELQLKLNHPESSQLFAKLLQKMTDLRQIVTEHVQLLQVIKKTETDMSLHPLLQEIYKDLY
Chain of Peroxisome proliferator-activated receptor gamma/Nuclear receptor coactivator 2 (Q15596 whole entry, further chain): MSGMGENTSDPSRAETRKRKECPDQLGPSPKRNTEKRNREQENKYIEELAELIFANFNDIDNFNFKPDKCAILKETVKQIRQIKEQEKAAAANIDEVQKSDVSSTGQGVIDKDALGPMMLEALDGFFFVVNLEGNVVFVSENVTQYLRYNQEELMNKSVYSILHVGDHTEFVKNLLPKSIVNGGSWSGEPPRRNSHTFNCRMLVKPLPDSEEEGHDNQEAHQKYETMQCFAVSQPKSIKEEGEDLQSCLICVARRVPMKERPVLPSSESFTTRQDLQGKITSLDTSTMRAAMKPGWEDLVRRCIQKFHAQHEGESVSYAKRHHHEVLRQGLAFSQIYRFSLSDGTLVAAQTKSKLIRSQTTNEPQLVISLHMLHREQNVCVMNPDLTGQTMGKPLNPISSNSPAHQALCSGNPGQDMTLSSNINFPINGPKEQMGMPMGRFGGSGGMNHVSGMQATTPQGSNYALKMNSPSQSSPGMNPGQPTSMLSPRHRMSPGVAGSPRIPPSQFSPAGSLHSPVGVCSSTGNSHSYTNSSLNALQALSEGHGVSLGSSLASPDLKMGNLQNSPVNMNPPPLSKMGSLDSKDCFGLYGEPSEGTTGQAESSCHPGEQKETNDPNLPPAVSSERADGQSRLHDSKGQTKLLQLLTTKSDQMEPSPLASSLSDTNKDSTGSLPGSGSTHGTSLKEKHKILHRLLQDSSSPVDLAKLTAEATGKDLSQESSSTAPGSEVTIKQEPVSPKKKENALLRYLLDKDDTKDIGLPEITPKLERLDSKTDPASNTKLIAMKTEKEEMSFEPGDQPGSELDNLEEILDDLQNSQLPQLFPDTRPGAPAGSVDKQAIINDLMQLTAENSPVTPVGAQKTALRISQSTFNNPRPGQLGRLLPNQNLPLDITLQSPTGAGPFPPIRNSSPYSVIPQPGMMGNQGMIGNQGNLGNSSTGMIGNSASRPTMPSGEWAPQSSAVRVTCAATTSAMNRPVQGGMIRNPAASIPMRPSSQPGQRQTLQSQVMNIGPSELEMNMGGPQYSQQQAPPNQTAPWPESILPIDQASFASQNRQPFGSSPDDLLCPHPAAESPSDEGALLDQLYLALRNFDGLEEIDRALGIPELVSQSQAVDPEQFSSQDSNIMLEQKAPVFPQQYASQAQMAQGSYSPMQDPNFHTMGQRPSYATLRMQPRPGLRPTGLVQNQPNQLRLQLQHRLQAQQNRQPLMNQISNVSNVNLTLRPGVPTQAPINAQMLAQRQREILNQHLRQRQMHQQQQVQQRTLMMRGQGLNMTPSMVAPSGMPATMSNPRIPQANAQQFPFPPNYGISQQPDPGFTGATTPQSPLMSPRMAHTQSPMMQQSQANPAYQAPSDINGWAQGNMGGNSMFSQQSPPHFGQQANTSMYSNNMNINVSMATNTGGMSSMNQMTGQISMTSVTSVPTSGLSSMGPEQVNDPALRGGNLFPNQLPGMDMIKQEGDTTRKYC
Chain of Intestinal-type alkaline phosphatase (P09923 whole entry): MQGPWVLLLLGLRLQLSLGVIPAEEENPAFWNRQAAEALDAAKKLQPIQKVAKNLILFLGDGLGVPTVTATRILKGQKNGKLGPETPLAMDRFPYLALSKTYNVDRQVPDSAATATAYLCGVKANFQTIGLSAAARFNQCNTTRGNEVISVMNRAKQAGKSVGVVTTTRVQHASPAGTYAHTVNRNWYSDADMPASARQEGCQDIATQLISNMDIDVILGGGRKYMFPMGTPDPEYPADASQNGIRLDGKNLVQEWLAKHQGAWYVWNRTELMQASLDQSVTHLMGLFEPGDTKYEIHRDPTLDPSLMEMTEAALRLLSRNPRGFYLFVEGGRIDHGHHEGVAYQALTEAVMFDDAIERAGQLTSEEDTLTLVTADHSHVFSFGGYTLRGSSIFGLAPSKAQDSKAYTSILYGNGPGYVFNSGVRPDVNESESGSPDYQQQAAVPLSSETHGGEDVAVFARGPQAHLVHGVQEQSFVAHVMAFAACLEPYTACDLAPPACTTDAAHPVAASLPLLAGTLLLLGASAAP

COc1ccc(C(=O)NC(CC(=O)O)c2ccc(Cl)cc2)cc1 (stereo unspecified)
IC50 [1]: > 25 µM (inactive)

Cc1ccc(OCc2c(Cl)cccc2Cl)c([N+](=O)[O-])n1
EC50 [2]: > 50 µM (inactive)

COc1cccc(C2C(C(=O)c3cc4cccc(OC)c4o3)=C(O)C(=O)N2c2cc(C)on2)c1OC (stereo unspecified)
EC50 [3]: > 300 µM (not active)
EC50 [4]: > 79.4 µM (inactive)
EC50 [5]: 19.6 µM (not active)
EC50 [6]: > 300 µM (not active)
EC50 [7]: > 79.4 µM (not active)

Cc1ccc(S(=O)(=O)Nc2nc3ccccc3nc2NCc2ccco2)cc1
EC50 [8]: 10.8 µM (active)
EC50 [9]: > 100 µM (inactive)
EC50 [10]: 7.32 µM (active)
EC50 [11]: 8.02 µM (active)

Cc1ccc(OCC(=O)N(C)CCOc2ccc(Cl)cc2)c([N+](=O)[O-])n1
EC50 [2]: > 50 µM (inactive)

COc1ccccc1-c1nnc(SCC(=O)Nc2ccccc2[N+](=O)[O-])[nH]1
IC50 [12]: 13.3 µM (active)
IC50 [13]: > 100 µM (not active)
IC50 [14]: > 100 µM (inactive)

C#CCOCCOCCOCCNc1nc(N2CCN(C(=O)[C@H](CCCN=C(N)N)n3cc(C(N)[C@@H](C)CC)nn3)CC2)nc(N2CCN(C(=O)[C@H](CCCCN)n3cc([C@@H](N)[C@H](C)CC)nn3)CC2)n1 (stereo partly specified)
IC50 [15]: 18.4 µM (active)
IC50 [16]: > 20 µM (inactive)
IC50 [17]: 15.2 µM (active)

CNC(C)C#Cc1ccc2oc3cc(C)c(C)cc3c(=O)c2c1 (stereo unspecified)
CC50 [18]: 29 µM (active)
IC50 [19]: 11.8 µM (active)
CC50 [20]: > 20 µM (active)
CC50 [21]: 22.2 µM (active)

COc1ccc(C(=O)Nc2cc(C(=O)O)ccc2Cl)cc1
IC50 [1]: > 25 µM (inactive)

Cn1ncc2c1ncn1c(-c3ccccc3)nnc21
IC50 [12]: > 100 µM (inactive)
IC50 [13]: > 100 µM (not active)
IC50 [14]: > 100 µM (inactive)

COc1ccc(-c2[nH]nc(-c3ccccc3)c2-c2nc3ccccc3[nH]2)cc1
IC50 [12]: > 100 µM (inactive)
IC50 [13]: 81.2 µM (active)
IC50 [14]: > 100 µM (inactive)

O=C(NNC(=O)c1nn(-c2ccc(F)cc2)ccc1=O)c1ccc(Cl)cc1
IC50 [15]: 19.8 µM (active)
IC50 [16]: > 20 µM (inactive)
IC50 [17]: 18.9 µM (active)

COc1cc(NS(=O)(=O)c2ccc(NC(=S)NC(=O)/C=C/c3ccc(F)cc3)cc2)ncn1
IC50 [22]: > 66 µM (inactive)
IC50 [23]: > 20 µM (inactive)
IC50 [24]: > 66 µM (inactive)

Cc1ccc(OCc2cccc(COc3ccc(C)nc3[N+](=O)[O-])c2)c([N+](=O)[O-])n1
EC50 [2]: > 50 µM (inactive)
